Reference: patent US20250206747A1, “COELENTERAZINE ANALOGUES” (priority 2023, published 2025)

Biological target: NANOLUC® luciferase (Oplophorus gracilirostris, UniProt Q9GV45, A31E/A60N/A81I/F95D/I117V/K70R/L54V/L99Q/M102K/N193R/P142E/Q151K/Q38R/Q45L/V71I/Y165I)
Experiment: Michaelis-Menten analysis of relative luminescence produced by NANOLUC luciferase at various concentrations of coelenterazine analogues
Type: biochemical
Settings: 0.01 nM NANOLUC luciferase

Sequence of NANOLUC® luciferase (Q9GV45 other isoform, or with tags, fused parts or gaps with the stated changes): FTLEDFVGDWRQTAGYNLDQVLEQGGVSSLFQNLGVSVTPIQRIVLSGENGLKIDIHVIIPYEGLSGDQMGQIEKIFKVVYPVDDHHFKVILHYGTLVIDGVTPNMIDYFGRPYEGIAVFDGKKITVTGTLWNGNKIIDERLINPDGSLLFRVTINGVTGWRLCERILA

Compound	Km (Table 1) [µM]	Km (Table 2) [µM]
COc1cccc(-c2cn3c(=O)c(Cc4ccco4)nc-3c(-c3cnnc(Cl)c3)[nH]2)c1 [Compound 10300]	0.27	–
O=c1c(Cc2ccco2)nc2c(-c3cnnc(Cl)c3)[nH]c(-c3cccc(F)c3F)cn1-2 [Compound 10427, 8-(6-chloropyridazin-4-yl)-6-(2,3-difluorophenyl)-2-(furan-2-ylmethyl)imidazo[1,2-a]pyrazin-3(7H)-one]	–	0.16
O=c1c(Cc2ccco2)nc2c(-c3cnnc(Cl)c3)[nH]c(-c3cccc(F)c3)cn1-2 [Compound 10299]	0.15	–
